Measurements published in paper PMC8301423, “The Effects of Temperature and Pressure on Protein-Ligand Binding in the Presence of Mars-Relevant Salts” (Biology, 2021).
Where “and” joins values, the source holds several entries; their conditions need not be identical. Identical values can stand only once.

Tests used:
[1] = biological target: T1, bovine serum albumin (BSA) (Bos taurus, UniProt P02769); assay: Steady-state fluorescence titration of ANS with BSA at ambient pressure (binding isotherms); conditions: for Kd: 1 bar, 10 mM Tris-HCl pH 7.4
T1 construct: BSA, molecular weight of 66 kDa, 583 residues; purchased Sigma Aldrich Chemicals (Taufkirchen, Germany)
From the text: (§1) The extent of complex formation between ANS and BSA was followed by means of steady-state fluorescence spectroscopy using a K2 fluorometer from ISS, Inc. (Champaign, IL, USA). The binding isotherms were obtained by recording ANS emission spectra by exciting the solutions at 350 nm and recording the emission intensities in the range 400–550 nm. The width slits of the excitation and emission monochromators were both set to 8 nm. Briefly, a series of solutions with a fixed concentration of ANS at ~5 µM were prepared, and the concentration of BSA was varied between 0 and ~40 µM. Then estimation of the binding constants (Kb) was performed by using a plot of ΔF = F − F0 (where F is the fluorescence intensity of ANS at the maximum in the presence of BSA, and F0 is the intensity of ANS in the absence of BSA) as a function of total BSA concentration and fitting the experimental data according to an equivalent and independent binding sites model or to two classes of non-equivalent and independent binding-site models, as described in detail in Reference.
Once the stoichiometries of the complex in the presence of the salts and at the three different temperatures are known, it is possible to estimate the binding constants, Kb, performing titration experiments by means of steady-state fluorescence spectroscopy. In these experiments, a solution of ANS was titrated with a BSA solution. The ANS is characterized by a very low quantum yield when it is free in solution [21]. Instead, when the aromatic ligand is bound to the protein’s hydrophobic pockets, a strong increase of the fluorescence intensity is observed. Thus, the extent of binding can be readily determined by following the fluorescence increase of ANS. The subsequent data analysis was performed according to the stoichiometries inferred by the Job’s plot experiments.

[2] = biological target: T1, bovine serum albumin (BSA); conditions: neat buffer (10 mM Tris-HCl), no salt; cited from earlier work
[3] = biological target: T1, bovine serum albumin (BSA); assay: High hydrostatic pressure fluorescence titration of ANS with BSA (1-2000 bar); assay type: binding; conditions: for Binding volume ΔVb1 (first binding site): from slope of lnKb1 vs p (1-2000 bar); for Binding volume ΔVb1 (first binding site) / Binding volume ΔVb2 (second binding site) / Binding volume ΔVb: per mol of protein; for Binding volume ΔVb2 (second binding site): from slope of lnKb2 vs p (1-2000 bar); for Binding volume ΔVb: from slope of lnKb vs p (1-2000 bar)
From the text: as §1
For the pressure dependent measurements, the high-pressure cell system from ISS and quartz cuvettes were used. The pressure was controlled by means of a manual pump, and water was used as pressurizing fluid. A pressure range from 1 to 2000 bar was explored. The ANS and BSA solutions were mixed, vortexed, and then filled into the sample cell, which was sealed with DuraSeal^TM laboratory stretch film and placed into the high-pressure vessel. The stretch film allowed for the pressure transmission in the sample cuvette.
In the next step, we explored the impact of high hydrostatic pressure (HHP) on the binding of ANS to BSA in the presence of the three salts and in the temperature range between 5 and 25 °C. To this end, we performed the same titration experiments following the complex formation by means of HHP fluorescence spectroscopy.
From the pressure dependence of the Kb values, the volume change upon binding, the protein–ligand binding volume ΔVb, can be determined (for an in-depth discussion of pressure effects on ligand binding, please refer to Reference and references therein):(1) [∂lnKb/∂p]T=−ΔVb/RT
Here, [∂lnKb/∂p]T is the derivative of the logarithm of the binding constant (Kb) with respect to pressure (p) at constant temperature (T). R is the universal gas constant. ΔVb is the binding volume defined as the difference between the partial molar volume of the complex (PL, where P is the protein and L the ligand) and the sum of the partial molar volumes of the uncomplexed state (P+L). Thus, the binding volume can be directly estimated by taking the slope of a plot of lnKb vs. p, assuming that the volume change is independent of pressure in the (here rather small) pressure range covered.

T1 sequence (P02769 25-607): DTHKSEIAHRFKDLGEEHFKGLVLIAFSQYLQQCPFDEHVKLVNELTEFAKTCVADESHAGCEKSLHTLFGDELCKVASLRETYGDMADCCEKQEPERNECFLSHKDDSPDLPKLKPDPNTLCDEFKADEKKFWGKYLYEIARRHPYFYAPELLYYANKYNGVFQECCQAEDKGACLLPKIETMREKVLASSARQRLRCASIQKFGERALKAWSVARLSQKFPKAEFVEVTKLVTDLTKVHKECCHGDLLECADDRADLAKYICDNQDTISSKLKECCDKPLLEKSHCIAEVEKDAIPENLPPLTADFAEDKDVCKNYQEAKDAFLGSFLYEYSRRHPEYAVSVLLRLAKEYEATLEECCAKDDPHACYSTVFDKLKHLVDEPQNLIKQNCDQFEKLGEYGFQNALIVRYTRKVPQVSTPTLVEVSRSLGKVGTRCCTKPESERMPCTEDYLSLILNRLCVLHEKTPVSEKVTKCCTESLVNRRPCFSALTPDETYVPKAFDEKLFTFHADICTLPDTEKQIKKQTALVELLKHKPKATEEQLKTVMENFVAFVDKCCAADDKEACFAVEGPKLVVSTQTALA

## O=S(=O)(O)c1cccc2cccc(Nc3ccccc3)c12 [ANS, 8-anilinonaphthalene-1-sulfonic acid]
[1]; 250 mM MgCl2, 1 bar
  Decrease of Kb on decreasing the temperature from 25 to 15 °C: ~ 90%
[1]; Binding constant Kb1, 250 mM Mg(ClO4)2, 5 °C
  Kd: 5260 nM
[1]; Binding constant Kb1, 250 mM Mg(ClO4)2, 15 °C
  Kd: 6670 nM
[1]; Binding constant Kb1, 250 mM Mg(ClO4)2, 25 °C
  Kd: 1690 nM
[1]; Binding constant Kb1, 250 mM MgCl2, 5 °C
  Kd: 1000 ± 100 nM
[1]; Binding constant Kb1, 250 mM MgCl2, 15 °C
  Kd: 2780 nM
[1]; Binding constant Kb1, 250 mM MgCl2, 25 °C
  Kd: 204 nM
[1]; Binding constant Kb1, 250 mM MgSO4, 5 °C
  Kd: 1610 nM
[1]; Binding constant Kb1, 250 mM MgSO4, 15 °C
  Kd: 2560 nM
[1]; Binding constant Kb1, 250 mM MgSO4, 25 °C
  Kd: 345 nM
[1]; Binding constant Kb2, 250 mM Mg(ClO4)2, 5 °C
  Kd: 5260 nM
[1]; Binding constant Kb2, 250 mM Mg(ClO4)2, 15 °C
  Kd: 7690 nM
[1]; Binding constant Kb2, 250 mM Mg(ClO4)2, 25 °C
  Kd: 833 nM
[2]
  ANS molecules bound on average to one BSA molecule: three
[3]; 250 mM Mg(ClO4)2, 5 °C
  Binding volume ΔVb1 (first binding site): -7.4 mL/mol and -7.4 ± 2.4 mL/mol
  Binding volume ΔVb2 (second binding site): -12.9 mL/mol and -12.9 ± 3.2 mL/mol
[3]; 250 mM Mg(ClO4)2, 15 °C
  Binding volume ΔVb1 (first binding site): -6.0 ± 1.0 mL/mol
  Binding volume ΔVb2 (second binding site): -5.0 ± 1.0 mL/mol
[3]; 250 mM Mg(ClO4)2, 25 °C
  Binding volume ΔVb1 (first binding site): 6.0 ± 2.0 mL/mol
  Binding volume ΔVb2 (second binding site): 2.0 ± 1.0 mL/mol
[3]; 250 mM MgCl2, 5 °C, up to 2 kbar
  Increase of Kb with pressure (factor): about a factor of two
[3]; 250 mM MgCl2, 15 °C
  Binding volume ΔVb: -2.5 ± 0.4 mL/mol
[3]; 250 mM MgCl2, 25 °C
  Binding volume ΔVb: -1.0 ± 1.0 mL/mol
[3]; 250 mM MgSO4, 5 °C
  Binding volume ΔVb: 2.0 ± 1.0 mL/mol
[3]; 250 mM MgSO4, 15 °C
  Binding volume ΔVb: -2.0 ± 1.0 mL/mol
[3]; 250 mM MgSO4, 25 °C
  Binding volume ΔVb: 3.6 ± 0.5 mL/mol
[3]; Binding constant Kb1, 250 mM Mg(ClO4)2, 5 °C, 1 bar
  Kd: 5260 nM
[3]; Binding constant Kb1, 250 mM Mg(ClO4)2, 5 °C, 500 bar
  Kd: 3130 nM
[3]; Binding constant Kb1, 250 mM Mg(ClO4)2, 5 °C, 1000 bar
  Kd: 2940 nM
[3]; Binding constant Kb1, 250 mM Mg(ClO4)2, 5 °C, 1500 bar
  Kd: 2860 nM
[3]; Binding constant Kb1, 250 mM Mg(ClO4)2, 5 °C, 2000 bar
  Kd: 2560 nM
[3]; Binding constant Kb1, 250 mM Mg(ClO4)2, 15 °C, 1 bar
  Kd: 6670 nM
[3]; Binding constant Kb1, 250 mM Mg(ClO4)2, 15 °C, 500 bar
  Kd: 7140 nM
[3]; Binding constant Kb1, 250 mM Mg(ClO4)2, 15 °C, 1000 bar
  Kd: 5260 nM
[3]; Binding constant Kb1, 250 mM Mg(ClO4)2, 15 °C, 1500 bar
  Kd: 4760 nM
[3]; Binding constant Kb1, 250 mM Mg(ClO4)2, 15 °C, 2000 bar
  Kd: 3850 nM
[3]; Binding constant Kb1, 250 mM Mg(ClO4)2, 25 °C, 1 bar
  Kd: 1690 nM
[3]; Binding constant Kb1, 250 mM Mg(ClO4)2, 25 °C, 500 bar
  Kd: 1690 nM
[3]; Binding constant Kb1, 250 mM Mg(ClO4)2, 25 °C, 1000 bar
  Kd: 2630 nM
[3]; Binding constant Kb1, 250 mM Mg(ClO4)2, 25 °C, 1500 bar
  Kd: 2940 nM
[3]; Binding constant Kb1, 250 mM Mg(ClO4)2, 25 °C, 2000 bar
  Kd: 2500 nM
[3]; Binding constant Kb1, 250 mM MgCl2, 5 °C, 1 bar
  Kd: 1000 ± 100 nM
[3]; Binding constant Kb1, 250 mM MgCl2, 5 °C, 500 bar
  Kd: 1000 ± 200 nM
[3]; Binding constant Kb1, 250 mM MgCl2, 5 °C, 1000 bar
  Kd: 833 nM
[3]; Binding constant Kb1, 250 mM MgCl2, 5 °C, 1500 bar
  Kd: 556 nM
[3]; Binding constant Kb1, 250 mM MgCl2, 5 °C, 2000 bar
  Kd: 526 nM
[3]; Binding constant Kb1, 250 mM MgCl2, 15 °C, 1 bar
  Kd: 2780 nM
[3]; Binding constant Kb1, 250 mM MgCl2, 15 °C, 500 bar
  Kd: 2500 nM
[3]; Binding constant Kb1, 250 mM MgCl2, 15 °C, 1000 bar
  Kd: 2440 nM
[3]; Binding constant Kb1, 250 mM MgCl2, 15 °C, 1500 bar
  Kd: 2330 nM
[3]; Binding constant Kb1, 250 mM MgCl2, 15 °C, 2000 bar
  Kd: 2220 nM
[3]; Binding constant Kb1, 250 mM MgCl2, 25 °C, 1 bar
  Kd: 204 nM
[3]; Binding constant Kb1, 250 mM MgCl2, 25 °C, 500 bar
  Kd: 233 nM
[3]; Binding constant Kb1, 250 mM MgCl2, 25 °C, 1000 bar
  Kd: 222 nM
[3]; Binding constant Kb1, 250 mM MgCl2, 25 °C, 1500 bar
  Kd: 204 nM
[3]; Binding constant Kb1, 250 mM MgCl2, 25 °C, 2000 bar
  Kd: 192 nM
[3]; Binding constant Kb1, 250 mM MgSO4, 5 °C, 1 bar
  Kd: 1610 nM
[3]; Binding constant Kb1, 250 mM MgSO4, 5 °C, 500 bar
  Kd: 2080 nM
[3]; Binding constant Kb1, 250 mM MgSO4, 5 °C, 1000 bar
  Kd: 2130 nM
[3]; Binding constant Kb1, 250 mM MgSO4, 5 °C, 1500 bar
  Kd: 1820 nM
[3]; Binding constant Kb1, 250 mM MgSO4, 5 °C, 2000 bar
  Kd: 2270 nM
[3]; Binding constant Kb1, 250 mM MgSO4, 15 °C, 1 bar
  Kd: 2560 nM
[3]; Binding constant Kb1, 250 mM MgSO4, 15 °C, 500 bar
  Kd: 2500 nM
[3]; Binding constant Kb1, 250 mM MgSO4, 15 °C, 1000 bar
  Kd: 2380 nM
[3]; Binding constant Kb1, 250 mM MgSO4, 15 °C, 1500 bar
  Kd: 2330 nM
[3]; Binding constant Kb1, 250 mM MgSO4, 15 °C, 2000 bar
  Kd: 2220 nM
[3]; Binding constant Kb1, 250 mM MgSO4, 25 °C, 1 bar
  Kd: 345 nM
[3]; Binding constant Kb1, 250 mM MgSO4, 25 °C, 500 bar
  Kd: 345 nM
[3]; Binding constant Kb1, 250 mM MgSO4, 25 °C, 1000 bar
  Kd: 370 nM
[3]; Binding constant Kb1, 250 mM MgSO4, 25 °C, 1500 bar
  Kd: 417 nM
[3]; Binding constant Kb1, 250 mM MgSO4, 25 °C, 2000 bar
  Kd: 455 nM
[3]; Binding constant Kb2, 250 mM Mg(ClO4)2, 5 °C, 1 bar
  Kd: 5260 nM
[3]; Binding constant Kb2, 250 mM Mg(ClO4)2, 5 °C, 500 bar
  Kd: 2500 nM
[3]; Binding constant Kb2, 250 mM Mg(ClO4)2, 5 °C, 1000 bar
  Kd: 2940 nM
[3]; Binding constant Kb2, 250 mM Mg(ClO4)2, 5 °C, 1500 bar
  Kd: 1920 nM
[3]; Binding constant Kb2, 250 mM Mg(ClO4)2, 5 °C, 2000 bar
  Kd: 1520 nM
[3]; Binding constant Kb2, 250 mM Mg(ClO4)2, 15 °C, 1 bar
  Kd: 7690 nM
[3]; Binding constant Kb2, 250 mM Mg(ClO4)2, 15 °C, 500 bar
  Kd: 6670 nM
[3]; Binding constant Kb2, 250 mM Mg(ClO4)2, 15 °C, 1000 bar
  Kd: 5260 nM
[3]; Binding constant Kb2, 250 mM Mg(ClO4)2, 15 °C, 1500 bar
  Kd: 4760 nM
[3]; Binding constant Kb2, 250 mM Mg(ClO4)2, 15 °C, 2000 bar
  Kd: 4170 nM
[3]; Binding constant Kb2, 250 mM Mg(ClO4)2, 25 °C, 1 bar
  Kd: 833 nM
[3]; Binding constant Kb2, 250 mM Mg(ClO4)2, 25 °C, 500 bar
  Kd: 909 nM
[3]; Binding constant Kb2, 250 mM Mg(ClO4)2, 25 °C, 1000 bar
  Kd: 833 nM
[3]; Binding constant Kb2, 250 mM Mg(ClO4)2, 25 °C, 1500 bar
  Kd: 833 nM
[3]; Binding constant Kb2, 250 mM Mg(ClO4)2, 25 °C, 2000 bar
  Kd: 1120 nM
